Here are results for four compounds from paper PMC4890880 (ACS infectious diseases, 2016).

SMILES strings stand for the structures. Where two headings read alike, the source gives them in different places.

In test [1] the test system is HepG2-A16-CD81EGFP cells. Particulars: for IC50: read-out: Tox_IC50, HepG2 cytotoxicity.
Test [2] relates to Plasmodium berghei (Pb-Luc) exoerythrocytic-stage parasites. Conditions: for IC50: read-out: PbLuc_IC50.
[3] abbreviates: 2nd round, maximal inhibition in dose series.
The mark [4] stands for this setting: sheet 2nd round, maximal inhibition in dose response.
The mark [5] stands for this setting: first series of columns, fraction of control.
The mark [6] stands for this setting: sheet 2nd round, Pb-Luc exoerythrocytic stage, 10-point dose response, top concentration 10.
[7] abbreviates: second series of columns (replicate), fraction of control.
Where [8] appears, read: first series, fraction of control.
[9] abbreviates: second series, fraction of control.

Consider `O=C(Cc1ccccn1)N1CC2(C1)[C@H](c1ccccc1)[C@H](CO)N2C(=O)c1ccncc1` [BRD-K71274172-001-01-0], for which the “Tox_max_inhibition (%)” value in test [1] (setting [3]) is 8%. The IC50 in test [1] (2nd round, unit inferred) is over 10 µM; in test [2] (2nd round, Broad DOS compounds, unit not printed (dose series head 10 to 0.000508053)), over 10 µM. For the same compound, the “PbLuc_max_inhibition (%)” value in test [2] (setting [3]) is 33%. Also, in test [2] (concentration 0.000508053, first replicate series, fraction of control), the “normalized signal at 0.000508053 (first series)” value is 0.9199. Besides, the “normalized signal at 0.000508053 (second series)” value in test [2] (concentration 0.000508053, second replicate series, fraction of control) turned out to be 0.7398. Further, the “normalized signal at 0.00152416 (first series)” value in test [2] (concentration 0.00152416, first replicate series, fraction of control) was determined as 1.024. The “normalized signal at 0.00152416 (second series)” value in test [2] (concentration 0.00152416, second replicate series, fraction of control) is listed as 0.9453. Also, the “normalized signal at 0.00457247 (first series)” value in test [2] (concentration 0.00457247, first replicate series, fraction of control) is 1.112. Moreover, the “normalized signal at 0.00457247 (second series)” value in test [2] (concentration 0.00457247, second replicate series, fraction of control) is 0.9743. Moreover, in test [2] (concentration 0.0137174, first replicate series, fraction of control), the “normalized signal at 0.0137174 (first series)” value is reported as 0.9082. For the same compound, the “normalized signal at 0.0137174 (second series)” value in test [2] (concentration 0.0137174, second replicate series, fraction of control) stood at 0.6716. Also, in test [2] (concentration 0.0411523, first replicate series, fraction of control), the “normalized signal at 0.0411523 (first series)” value is 1.078. For the same compound, the “normalized signal at 0.0411523 (second series)” value in test [2] (concentration 0.0411523, second replicate series, fraction of control) was 0.9171. In addition, in test [2] (concentration 0.123457, first replicate series, fraction of control), the “normalized signal at 0.123457 (first series)” value came to 1.09. The “normalized signal at 0.123457 (second series)” value in test [2] (concentration 0.123457, second replicate series, fraction of control) is listed as 1.008. Besides, the “normalized signal at 0.37037 (first series)” value in test [2] (concentration 0.37037, first replicate series, fraction of control) is reported as 0.9519. Further, the “normalized signal at 0.37037 (second series)” value in test [2] (concentration 0.37037, second replicate series, fraction of control) worked out at 0.8993. Besides, the “normalized signal at 1.11111 (first series)” value in test [2] (concentration 1.11111, first replicate series, fraction of control) amounted to 1.039. In test [2] (concentration 1.11111, second replicate series, fraction of control), the “normalized signal at 1.11111 (second series)” value turned out to be 0.6979. Further, in test [2] (concentration 3.33333, first replicate series, fraction of control), the “normalized signal at 3.33333 (first series)” value is reported as 0.9642. For the same compound, the “normalized signal at 3.33333 (second series)” value in test [2] (concentration 3.33333, second replicate series, fraction of control) is reported as 0.9744. Further, the “normalized signal at 10 (first series)” value in test [2] (concentration 10, first replicate series, fraction of control) is 1.127. Further, in test [2] (concentration 10, second replicate series, fraction of control), the “normalized signal at 10 (second series)” value is reported as 0.8663.
For the compound `Cc1noc(C)c1S(=O)(=O)N(C)C[C@H]1OCc2cn(nn2)CCCC(=O)N([C@@H](C)CO)C[C@@H]1C` [BRD-K72210630-001-02-7], in test [1] (sheet 2nd round), the IC50 is over 10 µM. Further, in test [1] (setting [4]), the “Tox_max_inhibition (%)” value is reported as 5%. Moreover, in test [2] (setting [5]), the “normalized signal at concentration 0.000508053” value was 0.823, the “normalized signal at concentration 0.00152416” value was found to be 0.7982, the “normalized signal at concentration 0.00457247” value is on record as 0.9501 and the “normalized signal at concentration 0.0137174” value is given as 0.8214. Further, in test [2] (setting [5]), the “normalized signal at concentration 0.0411523” value was found to be 0.9732, the “normalized signal at concentration 0.123457” value is 0.8751, the “normalized signal at concentration 0.37037” value is reported as 1.086 and the “normalized signal at concentration 1.11111” value was found to be 0.9189. Further, in test [2] (setting [5]), the “normalized signal at concentration 3.33333” value worked out at 0.9135 and the “normalized signal at concentration 10” value stood at 1.047. The IC50 in test [2] (setting [6]) was over 10 µM. In addition, in test [2] (setting [7]), the “normalized signal at concentration 0.000508053” value was determined as 1.029, the “normalized signal at concentration 0.00152416” value was found to be 0.9027, the “normalized signal at concentration 0.00457247” value was found to be 0.8403 and the “normalized signal at concentration 0.0137174” value is reported as 1.03. For the same compound, in test [2] (setting [7]), the “normalized signal at concentration 0.0411523” value was determined as 0.8593, the “normalized signal at concentration 0.123457” value is recorded as 1, the “normalized signal at concentration 0.37037” value is on record as 0.7692 and the “normalized signal at concentration 1.11111” value is 0.8393. Also, in test [2] (setting [7]), the “normalized signal at concentration 3.33333” value turned out to be 0.8793 and the “normalized signal at concentration 10” value is given as 0.8029. Moreover, the “PbLuc_max_inhibition (%)” value in test [2] (setting [4]) amounted to 23%.
As to `C[C@@H]1CN([C@H](C)CO)C(=O)c2cc(N(C)C)ccc2O[C@@H](C)CCCCO[C@H]1CN(C)S(=O)(=O)c1ccc(F)cc1` [BRD-K72687327-001-01-6], the IC50 in test [1] (sheet 2nd round) was over 10 µM. Moreover, in test [1] (setting [4]), the “Tox_max_inhibition (%)” value is 11%. Besides, in test [2] (first series of dose-response columns, fraction of control), the “normalized signal at concentration 10” value came out at 0.73. Further, in test [2] (setting [8]), the “normalized signal at concentration 0.000508053” value turned out to be 1.09, the “normalized signal at concentration 0.00152416” value is reported as 1.10, the “normalized signal at concentration 0.00457247” value came to 0.91 and the “normalized signal at concentration 0.0137174” value came out at 1.11. Besides, in test [2] (setting [8]), the “normalized signal at concentration 0.0411523” value is reported as 0.89, the “normalized signal at concentration 0.123457” value is listed as 0.84, the “normalized signal at concentration 0.37037” value came out at 0.92 and the “normalized signal at concentration 1.11111” value is recorded as 0.97. Moreover, the “normalized signal at concentration 3.33333” value in test [2] (setting [8]) is given as 1.01. Moreover, the IC50 in test [2] (sheet 2nd round, Broad compounds, dose response) was over 10 µM. Further, the “normalized signal at concentration 10” value in test [2] (second series of dose-response columns, fraction of control) is 0.75. Besides, in test [2] (setting [9]), the “normalized signal at concentration 0.000508053” value was found to be 0.96, the “normalized signal at concentration 0.00152416” value is given as 1.08, the “normalized signal at concentration 0.00457247” value came to 0.94 and the “normalized signal at concentration 0.0137174” value is 1.05. In test [2] (setting [9]), the “normalized signal at concentration 0.0411523” value is recorded as 1.15, the “normalized signal at concentration 0.123457” value is 0.88, the “normalized signal at concentration 0.37037” value is 1.15 and the “normalized signal at concentration 1.11111” value was 1.02. The “normalized signal at concentration 3.33333” value in test [2] (setting [9]) is 1.11. For the same compound, the “PbLuc_max_inhibition (%)” value in test [2] (setting [4]) turned out to be 27%.
For `COc1ccccc1NC(=O)N1C[C@@H]2N[C@H](C1)C2c1ccc(/C=C/c2ccccc2)cc1` (stereo partly drawn) [BRD-K72765192-019-01-4], the IC50 in test [1] (sheet 2nd round) was over 10 µM. Further, in test [1] (setting [4]), the “Tox_max_inhibition (%)” value amounted to 5.61%. Besides, in test [2] (setting [5]), the “normalized signal at concentration 0.000508053” value is listed as 0.9244, the “normalized signal at concentration 0.00152416” value is reported as 0.9767, the “normalized signal at concentration 0.00457247” value is listed as 0.9222 and the “normalized signal at concentration 0.0137174” value worked out at 1.063. Moreover, in test [2] (setting [5]), the “normalized signal at concentration 0.0411523” value is 0.9659, the “normalized signal at concentration 0.123457” value turned out to be 0.9808, the “normalized signal at concentration 0.37037” value came to 1.083 and the “normalized signal at concentration 1.11111” value stood at 0.9875. In test [2] (setting [5]), the “normalized signal at concentration 3.33333” value is given as 1.091 and the “normalized signal at concentration 10” value was 0.9372. The IC50 in test [2] (setting [6]) was over 10 µM. For the same compound, in test [2] (setting [7]), the “normalized signal at concentration 0.000508053” value is listed as 0.82, the “normalized signal at concentration 0.00152416” value came to 0.9053, the “normalized signal at concentration 0.00457247” value was 1.027 and the “normalized signal at concentration 0.0137174” value is recorded as 0.8721. In addition, in test [2] (setting [7]), the “normalized signal at concentration 0.0411523” value is recorded as 0.9154, the “normalized signal at concentration 0.123457” value was determined as 0.911, the “normalized signal at concentration 0.37037” value is given as 1.02 and the “normalized signal at concentration 1.11111” value came out at 0.9038. Besides, in test [2] (setting [7]), the “normalized signal at concentration 3.33333” value is given as 0.8733 and the “normalized signal at concentration 10” value came out at 0.8146. For the same compound, the “PbLuc_max_inhibition (%)” value in test [2] (setting [4]) worked out at 19%.
